Among the data in US9498483B2, “2,3,5-trisubstituted thiophene compounds and uses thereof” (priority 2010, dated 2016) are IC50 values, retold here.

The target of assay [1] is T1, HCV polymerase (Hepatitis C virus genotype 1b, UniProt Q9WMX2).
T1 construct: (His)6 (C); made in house; host or cells: XL-1 cells (E. coli, by own knowledge)
Description: Polymerase assay of Biological Example 1 (IC50 values of Table 3). The format is biochemical. As to conditions: IC50 values of Table 3, polymerase assay of Biological Example 1; read-out: NS5B-enzyme3.

The subject of assay [2] is HCV replicon I389luc-ubi-neo/NS3-3′/ET in ET (Huh-lucubineo-ET) cells. The experiment in a line: Replicon assay (Biological Example 2), luciferase readout. The format is cell-based. As to conditions: Hepatitis C virus. The essentials:
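EC50 values come from Hill fits of % inhibition of replicon-driven firefly luciferase, relative to no-compound wells. Compounds were serially diluted (10 points, 3-fold, 0.1 nM–50 μM final, 0.5% DMSO) onto ET replicon cells and read after 48 h.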

[3] abbreviates: ET cells, luciferase activity 48 hours after compound.

Consider `O=C(O)c1sc(-c2ccccc2)cc1N1C(=O)CN(S(=O)(=O)c2ccc(C(F)(F)F)cc2)CC1C1CCCCC1` (stereo not drawn) [Compound 54, 3-[2-Cyclohexyl-6-oxo-4-(4-trifluoromethyl-benzenesulfonyl)-piperazin-1-yl]-5-phenyl-thiophene-2-carboxylic acid], for which the IC50 in assay [1] was 18 nM; in assay [2] (between 100 nM and 5.0 uM) it was 100 to 5000 nM.

For `CCc1ccc(S(=O)(=O)N2CC(=O)N(c3cc(-c4ccccc4)sc3C(=O)O)C(C3CCCCC3)C2)cc1` (stereo not drawn) [Compound 56, 3-[2-Cyclohexyl-4-(4-ethyl-benzenesulfonyl)-6-oxo-piperazin-1-yl]-5-phenyl-thiophene-2-carboxylic acid], the IC50 in assay [1] was 7.1 nM; in assay [2] (between 100 nM and 5.0 uM), 100 to 5000 nM.

On to `Cn1ccc2cccc(S(=O)(=O)N3CC(=O)N(c4cc(-c5ccccc5)sc4C(=O)O)C(C4CCCCC4)C3)c21` (stereo not drawn) [Compound 57, 3-[2-Cyclohexyl-4-(1-methyl-1H-indole-7-sulfonyl)-6-oxo-piperazin-1-yl]-5-phenyl-thiophene-2-carboxylic acid], for which the IC50 is 260 nM in assay [1] and no less than 5000 nM in assay [2] (setting [3]).

Take `Cc1ccccc1S(=O)(=O)N1CC(=O)N(c2cc(-c3ccccc3)sc2C(=O)O)C(C2CCCCC2)C1` (stereo not drawn) [Compound 58, 3-[2-Cyclohexyl-6-oxo-4-(toluene-2-sulfonyl)-piperazin-1-yl]-5-phenyl-thiophene-2-carboxylic acid]: the IC50 in assay [1] was 88 nM; in assay [2] (between 100 nM and 5.0 uM) it was 100 to 5000 nM.

`O=C(O)c1sc(-c2ccccc2)cc1N1C(=O)CN(S(=O)(=O)c2cccc(OC(F)(F)F)c2)CC1C1CCCCC1` (stereo not drawn) [Compound 59]: the IC50 was 39 nM in assay [1]; 100 to 5000 nM in assay [2] (between 100 nM and 5.0 uM).

Consider `O=C(O)c1sc(-c2ccccc2)cc1N1C(=O)CN(S(=O)(=O)c2ccc(-c3ccccc3)cc2)CC1C1CCCCC1` (stereo not drawn) [Compound 60, 3-[4-(Biphenyl-4-sulfonyl)-2-cyclohexyl-6-oxo-piperazin-1-yl]-5-phenyl-thiophene-2-carboxylic acid], for which the IC50 in assay [1] was 9 nM; in assay [2] (between 100 nM and 5.0 uM), 100 to 5000 nM.

As to `Cn1ccc2cc(S(=O)(=O)N3CC(=O)N(c4cc(-c5ccccc5)sc4C(=O)O)C(C4CCCCC4)C3)ccc21` (stereo not drawn) [Compound 61, 3-[2-Cyclohexyl-4-(1-methyl-1H-indole-5-sulfonyl)-6-oxo-piperazin-1-yl]-5-phenyl-thiophene-2-carboxylic acid], the IC50 in assay [1] is 3 nM; in assay [2] (between 100 nM and 5.0 uM), 100 to 5000 nM.

On to `Cn1ccc(S(=O)(=O)N2CC(=O)N(c3cc(-c4ccccc4)sc3C(=O)O)C(C3CCCCC3)C2)n1` (stereo not drawn) [Compound 62, 3-[2-Cyclohexyl-4-(1-methyl-1H-pyrazole-3-sulfonyl)-6-oxo-piperazin-1-yl]-5-phenyl-thiophene-2-carboxylic acid], for which the IC50 is 11 nM in assay [1]; 100 to 5000 nM in assay [2] (between 100 nM and 5.0 uM).

As to `Cc1nccc(-c2cccc(S(=O)(=O)N3CC(=O)N(c4cc(-c5ccccc5)sc4C(=O)O)C(C4CCCCC4)C3)c2)n1` (stereo not drawn) [Compound 63, 3-{2-Cyclohexyl-4-[3-(2-methyl-pyrimidin-4-yl)-benzenesulfonyl]-6-oxo-piperazin-1-yl}-5-phenyl-thiophene-2-carboxylic acid], the IC50 in assay [1] was 42 nM; in assay [2] (between 100 nM and 5.0 uM) it was 100 to 5000 nM.

Regarding `Cn1ccc2c(S(=O)(=O)N3CC(=O)N(c4cc(-c5ccccc5)sc4C(=O)O)C(C4CCCCC4)C3)cccc21` (stereo not drawn) [Compound 64, 3-[2-Cyclohexyl-4-(1-methyl-1H-indole-4-sulfonyl)-6-oxo-piperazin-1-yl]-5-phenyl-thiophene-2-carboxylic acid], the IC50 in assay [1] was 31 nM; in assay [2] (between 100 nM and 5.0 uM), 100 to 5000 nM.

As to `O=C(O)c1sc(-c2ccccc2)cc1N1C(=O)CN(S(=O)(=O)c2cccc(-c3ccccc3)c2)CC1C1CCCCC1` (stereo not drawn) [Compound 65, 3-[4-(Biphenyl-3-sulfonyl)-2-cyclohexyl-6-oxo-piperazin-1-yl]-5-phenyl-thiophene-2-carboxylic acid], the IC50 is 45 nM in assay [1]; 100 to 5000 nM in assay [2] (between 100 nM and 5.0 uM).

Turning to `O=C(O)c1sc(-c2ccccc2)cc1N1C(=O)CN(S(=O)(=O)c2ccc(F)c(C(F)(F)F)c2)CC1C1CCCCC1` (stereo not drawn) [Compound 66, 3-[2-Cyclohexyl-4-(4-fluoro-3-trifluoromethyl-benzenesulfonyl)-6-oxo-piperazin-1-yl]-5-phenyl-thiophene-2-carboxylic acid], the IC50 was 49 nM in assay [1]; 100 to 5000 nM in assay [2] (between 100 nM and 5.0 uM).

Take `O=C(O)c1sc(-c2ccccc2F)cc1N1C(=O)CCCC1C1CCCCC1` (stereo not drawn) [Compound 67, 3-(2-Cyclohexyl-6-oxo-piperidin-1-yl)-5-(2-fluoro-phenyl)-thiophene-2-carboxylic acid]: the IC50 in assay [1] is 183 nM; in assay [2] (between 100 nM and 5.0 uM), 100 to 5000 nM.

Take `CCN(CC)c1ccc(S(=O)(=O)N2CC(=O)N(c3cc(-c4ccccc4)sc3C(=O)O)C(C3CCCCC3)C2)cn1` (stereo not drawn) [Compound 69, 3-[2-Cyclohexyl-4-(6-diethylamino-pyridine-3-sulfonyl)-6-oxo-piperazin-1-yl]-5-phenyl-thiophene-2-carboxylic acid]: the IC50 was 2 nM in assay [1] and no more than 100 nM in assay [2] (setting [3]).

As to `O=C(O)c1sc(-c2ccc(F)cc2)cc1N1C(=O)CCCC1C1CCCCC1` (stereo not drawn) [Compound 70, 3-(2-Cyclohexyl-6-oxo-piperidin-1-yl)-5-(4-fluoro-phenyl)-thiophene-2-carboxylic acid], the IC50 was 67 nM in assay [1]; 100 to 5000 nM in assay [2] (between 100 nM and 5.0 uM).

As for `Cc1ccc(-c2cc(N3C(=O)CCCC3C3CCCCC3)c(C(=O)O)s2)cc1` (stereo not drawn) [Compound 71, 3-(2-Cyclohexyl-6-oxo-piperidin-1-yl)-5-p-tolyl-thiophene-2-carboxylic acid], the IC50 is 52 nM in assay [1]; 100 to 5000 nM in assay [2] (between 100 nM and 5.0 uM).

Turning to `CCc1ccc(-c2cc(N3C(=O)CCCC3C3CCCCC3)c(C(=O)O)s2)cc1` (stereo not drawn) [Compound 72, 3-(2-Cyclohexyl-6-oxo-piperidin-1-yl)-5-(4-ethyl-phenyl)-thiophene-2-carboxylic acid], the IC50 in assay [1] is 64 nM; in assay [2] (between 100 nM and 5.0 uM), 100 to 5000 nM.

In the case of `O=C(O)c1sc(-c2ccc(Cl)cc2)cc1N1C(=O)CCCC1C1CCCCC1` (stereo not drawn) [Compound 73, 5-(4-Chloro-phenyl)-3-(2-cyclohexyl-6-oxo-piperidin-1-yl)-thiophene-2-carboxylic acid], the IC50 in assay [1] was 21 nM; in assay [2] (between 100 nM and 5.0 uM), 100 to 5000 nM.

On to `O=C(O)c1sc(-c2ccccc2)cc1N1C(=O)CN(S(=O)(=O)c2ccc(N3CCC3)nc2)CC1C1CCCCC1` (stereo not drawn) [Compound 74, 3-[4-(6-Azetidin-1-yl-pyridine-3-sulfonyl)-2-cyclohexyl-6-oxo-piperazin-1-yl]-5-phenyl-thiophene-2-carboxylic acid], for which the IC50 in assay [1] is 12 nM; in assay [2] (setting [3]) it was no more than 100 nM.

Take `O=C(O)c1sc(-c2ccccc2)cc1N1C(=O)CN(S(=O)(=O)c2ccc(NC3CCCCC3)nc2)CC1C1CCCCC1` (stereo not drawn) [Compound 75, 3-[2-Cyclohexyl-4-(6-cyclohexylamino-pyridine-3-sulfonyl)-6-oxo-piperazin-1-yl]-5-phenyl-thiophene-2-carboxylic acid]: the IC50 is 8 nM in assay [1] and no more than 100 nM in assay [2] (setting [3]).

As for `O=C(O)c1sc(-c2ccccc2)cc1N1C(=O)CN(S(=O)(=O)c2ccc(N3CCCC3)nc2)CC1C1CCCCC1` (stereo not drawn) [Compound 76, 3-[2-Cyclohexyl-6-oxo-4-(6-pyrrolidin-1-yl-pyridine-3-sulfonyl)-piperazin-1-yl]-5-phenyl-thiophene-2-carboxylic acid], the IC50 in assay [1] is 4 nM; in assay [2] (setting [3]), no more than 100 nM.
